Legend:
[1] = target: T1, PD-L1 (Homo sapiens, UniProt Q9NZQ7); assay: PD-L1/PD-L1 dimerization biochemical protein-protein interaction assay (ALPHA); settings: 0.5 nM His tagged PD-L1 and 0.5 nM FLAG tagged PD-L1; compound induced dimerization; read-out: AC50 PDL1 Dimer 1 nM
T1 construct: determine if they can specifically dimerize the extracellular domains of PD-L1
Protocol: PD-L1/PD-L1 Dimerization Biochemical Protein-Protein Interaction Assay
Compounds were tested in biochemical protein-protein interaction assays to determine if they can specifically dimerize the extracellular domains of PD-L1. Dimerization of the proteins (His-tagged PD-L1 and FLAG-tagged PD-L1) is measured using a bead based Amplified Luminescent Proximity Homogeneous Assay (ALPHA) platform. […] Assays are performed in 25 mM Hepes (pH 7.4), 150 mM NaCl, 3.4 mM EDTA, 0.005% Tween 20, and 0.01% BSA. Final protein concentration in the assays were 0.5 nM (His tagged PD-L1) and 0.5 nM (FLAG tagged PD-L1). After an assay reaction time of 2 hours at 25° C., 20 μg/mL (final assay concentration) ALPHA assay acceptor beads (anti-His coated) were added and incubated for 60 minutes at 25° C. Binding was measured following a final 60 minute incubation with 40 μg/mL (final assay concentration) ALPHA assay donor beads (anti-FLAG coated). AC50 values were calculated from the fit of the dose-response curves to a four-parameter equation (Table 4).

[2] = target: T2, PD-1/PD-L1 (Homo sapiens, UniProt Q9NZQ7); assay: PD-1/PD-L1 biochemical protein-protein interaction assay (ALPHA); assay type: binding; settings: 0.3 nM His tagged PD-L1, 2.5 nM biotinylated Fc-PD-1; 60 minutes at 25° C.; read-out: IC50 PD-L1-PD1
Protocol: PD-1/PD-L1 & CTLA/CD80 Biochemical Protein-Protein Interaction Assay
Compounds were tested in biochemical protein-protein interaction assays to determine if they can specifically block the interaction between the extracellular domains of PD-1/PD-L1 or CTLA/CD80. Binding of the protein pairs is measured using a bead based Amplified Luminescent Proximity Homogeneous Assay (ALPHA) platform. Binding of each protein pair results in proximity of the donor and acceptor beads which leads to an increase in ALPHA signal. Disruption of the protein-protein interaction with a test compound results in a decrease in ALPHA signal. Assays are performed in 25 mM Hepes (pH 7.4), 150 mM NaCl, 3.4 mM EDTA, 0.005% Tween 20, and 0.01% BSA. Final protein concentration in the assays were 0.3 nM (His tagged PD-L1), 2.5 nM (biotinylated Fc-PD-1), 1 nM (His tagged CTLA4) and 1 nM (biotinylated CD80). After an assay reaction time of 60 minutes at 25° C., binding was measured with addition of 20 μg/mL ALPHA assay acceptor beads (anti-His coated) and 20 µg/mL ALPHA assay donor beads (streptavidin coated). IC50 values were calculated from the fit of the dose-response curves to a four-parameter equation. Representative data are shown below in Table 3.
Target sequence in this assay (Q9NZQ7 19-238 limits assumed): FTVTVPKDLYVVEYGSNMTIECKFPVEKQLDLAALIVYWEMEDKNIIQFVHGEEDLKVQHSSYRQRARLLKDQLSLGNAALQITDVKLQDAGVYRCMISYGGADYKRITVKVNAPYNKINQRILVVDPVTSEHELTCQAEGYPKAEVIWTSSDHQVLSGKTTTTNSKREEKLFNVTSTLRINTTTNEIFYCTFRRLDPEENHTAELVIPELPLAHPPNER

[3] = target: T2, PD-1/PD-L1; assay: PD-1/PD-L1 NFAT reporter assay (co-culture of aAPC-PD-L1 CHO cells and Jurkat cells overexpressing PD-1, NFAT luciferase); assay type: cell-based; set-up: expressed in transfected cells; host or cells: CHO cells (aAPC-PD-L1) co-cultured with Jurkat cells overexpressing PD-1; settings: co-culture incubated for 6 hrs at 37° C.; luciferase under NFAT control
Protocol: PD-1/PD-L1 NFAT Reporter Assay
Compounds were tested in a functional co-culture reporter assay in which TCR-mediated NFAT activity is inhibited by the engagement of PD-1 with PD-L1. […] CHO cells expressing surface-bound anti-CD3 antibodies and PD-L1 (artificial antigen presenting cells, aAPC-PD-L1) were first seeded overnight. Jurkat cells overexpressing PD-1 and expressing a luciferase construct under NFAT control are diluted in RPMI assay medium (RPMI 1640 with 2% FBS), mixed with compounds, and immediately seeded on the monolayer of aAPC-PD-L1. The co-culture is then incubated for 6 hrs at 37° C. Luciferase activity is assessed by adding the ONE-Glo reagent and measuring luminescence with a plate reader. EC50 values are calculated from the fit of the dose-response curves to a four-parameter equation (Table 4).
Target sequence in this assay (Q9NZQ7 19-290): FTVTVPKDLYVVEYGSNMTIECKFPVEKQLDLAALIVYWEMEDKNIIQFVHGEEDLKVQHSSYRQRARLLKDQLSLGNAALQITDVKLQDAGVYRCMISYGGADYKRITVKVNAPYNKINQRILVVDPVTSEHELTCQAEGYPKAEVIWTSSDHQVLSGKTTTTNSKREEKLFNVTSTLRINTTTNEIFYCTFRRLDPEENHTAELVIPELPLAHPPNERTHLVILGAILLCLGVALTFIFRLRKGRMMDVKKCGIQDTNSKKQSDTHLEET

T1 sequence (Q9NZQ7 19-238 limits assumed): as the sequence (Q9NZQ7 19-238 limits assumed) above
T1 sequence (Q9NZQ7 19-238 limits assumed): as above

AC50 [1] | IC50 [2] | EC50 [3] | Compound
30.6 nM | 0.312 nM | 155 nM | C[C@](CO)(NCc1cc(Cl)c(OCc2cccc(-c3cccc(-c4ccc5c(c4)CNCC5)c3Cl)c2Cl)nc1OCc1cc(C#N)cc(C#N)c1)C(=O)O [Compound 27]
54.9 nM | 0.158 nM | 73 nM | Cc1c(COc2cc(OCc3cncc(C#N)c3)c(CN[C@@](C)(CO)C(=O)O)cc2Cl)cccc1-c1cccc(-c2ccc3c(c2)CNCC3N)c1C (stereo partly drawn) [Compound 18]
135 nM | 0.064 nM | 1260 nM | COc1nc(O[C@H]2CCc3c(-c4cccc(-c5ccc6c(n5)CCNC6)c4Cl)cccc32)c(C(F)(F)F)cc1CN1CC[C@@H](C(=O)O)C1 [Compound 1, (R)-1-((6-(((S)-4-(2-chloro-3-(5,6,7,8-tetrahydro-1,6-naphthyridin-2-yl)phenyl)-2,3-dihydro-1H-inden-1-yl)oxy)-2-methoxy-5-(trifluoromethyl)pyridin-3-yl)methyl)pyrrolidine-3-carboxylic acid]
39.7 nM | 0.367 nM | 161 nM | C[C@@](CO)(NCc1cc(Cl)c(OCc2cccc(-c3cccc(-c4ccc5c(c4)CNCC5)c3Cl)c2Cl)nc1OCc1cc(C#N)cc(C#N)c1)C(=O)O [Compound 28]
